Results on eleven compounds are retold here after PubChem BioAssay AID342 (DTP/NCI, 2004).

Values joined by “and” are separate entries in the source; they are usually repeats but may differ in a detail not shown here. Identical values can stand only once.

For this test, the system named is Swiss mice, Sarcoma 180 sc, mean tumor weight T/C. In words: NCI In Vivo Anticancer Drug Screen. Data for tumor model Sarcoma 180 (subcutaneous) in Swiss mice. As to conditions: endpoint: mean tumor weight, higher = larger tumour. The essentials:
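Readout is the ratio of treated-group measurement to vehicle-control measurement (T/C), based on survival or tumor size in mice carrying transplanted tumors.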

The mark [1] stands for this setting: dose: 333.0 mg/kg/injection, schedule: Q01DX007 (ip), vehicle: carboxymethylcellulose (CMC).
[2] abbreviates: dose: 500.0 mg/kg/injection, schedule: Q01DX007 (ip), vehicle: carboxymethylcellulose (CMC).
Where [3] appears, read: dose: 750.0 mg/kg/injection, schedule: Q01DX007 (ip), vehicle: carboxymethylcellulose (CMC).
[4] abbreviates: dose: 50.0 mg/kg/injection, schedule: Q#A X014 (sc), vehicle: steriod suspending solution.

As to `COc1ccc2c(c1O)-c1c(OC)c(OC)cc3c1[C@H](C2)[N+](C)(C)CC3`, the T/C is 108 % of control (dose: 2.5 mg/kg/injection, schedule: Q01DX007 (ip), vehicle: saline) and 100 % of control (dose: 5.0 mg/kg/injection, schedule: Q01DX007 (ip), vehicle: saline).
`CCOC(=O)c1ccc(N=NN(C)C)cc1`: the T/C runs as follows: (dose: 62.0 mg/kg/injection, schedule: Q01DX007 (ip), vehicle: carboxymethylcellulose (CMC)) 74 % of control; (dose: 125.0 mg/kg/injection, schedule: Q01DX007 (ip), vehicle: carboxymethylcellulose (CMC)) 49 % of control; (dose: 187.0 mg/kg/injection, schedule: Q01DX007 (ip), vehicle: carboxymethylcellulose (CMC)) 23 % of control; (dose: 250.0 mg/kg/injection, schedule: Q01DX007 (ip), vehicle: carboxymethylcellulose (CMC)) 12 % of control.
In the case of `Nc1n[se]nc1C(=O)O`, the T/C is 96 % of control (dose: 0.5 mg/kg/injection, schedule: Q01DX007 (ip), vehicle: carboxymethylcellulose (CMC)); 117 % of control (dose: 1.0 mg/kg/injection, schedule: Q01DX007 (ip), vehicle: carboxymethylcellulose (CMC)); 77 % of control (dose: 2.0 mg/kg/injection, schedule: Q01DX007 (ip), vehicle: carboxymethylcellulose (CMC)).
With `O=C(NNC(=O)c1cccc2ccccc12)c1cc(Br)ccc1Br`, the T/C runs as follows: (dose: 222.0 mg/kg/injection, schedule: Q01DX007 (ip), vehicle: carboxymethylcellulose (CMC)) 53 % of control; under setting [1], 65 % of control; under setting [2], 26 % of control; under setting [3], 37 % of control.
Regarding `CC=C(/C(=C/C)c1ccc(O)cc1)c1ccc(O)cc1`, the T/C runs as follows: (dose: 15.0 mg/kg/injection, schedule: Q01DX007 (ip), vehicle: carboxymethylcellulose (CMC)) 52 % of control; (dose: 20.0 mg/kg/injection, schedule: Q01DX007 (ip), vehicle: carboxymethylcellulose (CMC)) 42 % of control; (dose: 27.5 mg/kg/injection, schedule: Q#A X014 (ip), vehicle: carboxymethylcellulose (CMC)) 40 % of control and 54 % of control; (dose: 30.0 mg/kg/injection, schedule: Q01DX007 (ip), vehicle: carboxymethylcellulose (CMC)) 48 % of control; (dose: 44.0 mg/kg/injection, schedule: Q01DX007 (ip), vehicle: carboxymethylcellulose (CMC)) 31 % of control and 40 % of control; (dose: 66.0 mg/kg/injection, schedule: Q01DX007 (ip), vehicle: carboxymethylcellulose (CMC)) 35 % of control. Besides, the T/C (dose: 80.0 mg/kg/injection, schedule: Q01DX007 (sc), vehicle: carboxymethylcellulose (CMC)) is 58 % of control; the T/C (dose: 80.0 mg/kg/injection, schedule: Q01DX007 (sc), vehicle: steriod suspending solution) was 14 % of control; the T/C (dose: 94.0 mg/kg/injection, schedule: Q#A X014 (ip), vehicle: carboxymethylcellulose (CMC)) was 50 % of control and 69 % of control; the T/C (dose: 100.0 mg/kg/injection, schedule: Q01DX007 (ip), vehicle: carboxymethylcellulose (CMC)) is 52 % of control; the T/C (dose: 124.0 mg/kg/injection, schedule: Q01DX007 (ip), vehicle: carboxymethylcellulose (CMC)) was 104 % of control; the T/C (dose: 150.0 mg/kg/injection, schedule: Q01DX007 (ip), vehicle: carboxymethylcellulose (CMC)) is 39 % of control. Moreover, the T/C is 52 % of control (dose: 160.0 mg/kg/injection, schedule: Q01DX007 (sc), vehicle: carboxymethylcellulose (CMC)); 23 % of control (dose: 160.0 mg/kg/injection, schedule: Q01DX007 (sc), vehicle: steriod suspending solution); 84 % of control (dose: 188.0 mg/kg/injection, schedule: Q01DX007 (ip), vehicle: carboxymethylcellulose (CMC)); 28 % of control and 31 % of control (dose: 225.0 mg/kg/injection, schedule: Q01DX007 (ip), vehicle: carboxymethylcellulose (CMC)); 71 % of control (dose: 277.0 mg/kg/injection, schedule: Q01DX007 (ip), vehicle: carboxymethylcellulose (CMC)); 63 % of control (dose: 281.0 mg/kg/injection, schedule: Q01DX007 (ip), vehicle: carboxymethylcellulose (CMC)). For the same compound, the T/C is 30 % of control (dose: 320.0 mg/kg/injection, schedule: Q01DX007 (sc), vehicle: carboxymethylcellulose (CMC)); 23 % of control (dose: 320.0 mg/kg/injection, schedule: Q01DX007 (sc), vehicle: steriod suspending solution); 29 % of control under setting [1]; 58 % of control and 65 % of control (dose: 422.0 mg/kg/injection, schedule: Q01DX007 (ip), vehicle: carboxymethylcellulose (CMC)); 24 % of control and 38 % of control under setting [2]; 63 % of control (dose: 630.0 mg/kg/injection, schedule: Q01DX007 (ip), vehicle: carboxymethylcellulose (CMC)). Further, the T/C is 47 % of control (dose: 640.0 mg/kg/injection, schedule: Q01DX007 (sc), vehicle: carboxymethylcellulose (CMC)); 17 % of control (dose: 640.0 mg/kg/injection, schedule: Q01DX007 (sc), vehicle: steriod suspending solution); 35 % of control under setting [3]; 44 % of control (dose: 945.0 mg/kg/injection, schedule: Q01DX007 (ip), vehicle: carboxymethylcellulose (CMC)).
Take `C=CCOc1ccc2c(c1)CC[C@@H]1[C@@H]2CC[C@@]2(C)[C@H]1CC[C@]2(C)O`: the T/C is, setting by setting: (dose: 0.5 mg/kg/injection, schedule: Q#A X014 (sc), vehicle: steriod suspending solution) 80 % of control; (dose: 5.0 mg/kg/injection, schedule: Q#A X014 (sc), vehicle: steriod suspending solution) 116 % of control; under setting [4], 71 % of control.
`NC(Cc1cc(I)c(Oc2ccc(O)c(I)c2)c(I)c1)C(=O)O` (stereo unspecified): the T/C (dose: 0.1 micrograms/kg/injection, schedule: Q01DX007 (sc), vehicle: steriod suspending solution) was 103 % of control; the T/C (dose: 1.0 micrograms/kg/injection, schedule: Q01DX007 (sc), vehicle: steriod suspending solution) is 95 % of control; the T/C (dose: 10.0 micrograms/kg/injection, schedule: Q01DX007 (sc), vehicle: steriod suspending solution) is 156 % of control.
In the case of `C[C@H]1C[C@@H]2[C@H]([C@@H](O)C[C@@]3(C)[C@H]2CC[C@]3(O)C(=O)CO)[C@@]2(C)C=CC(=O)C=C12`, the T/C (dose: 6.25 mg/kg/injection, schedule: Q#A X014 (sc), vehicle: steriod suspending solution) was 82 % of control; the T/C (dose: 12.5 mg/kg/injection, schedule: Q01DX007 (sc), vehicle: water) was 45 % of control; the T/C (dose: 12.5 mg/kg/injection, schedule: Q#A X014 (sc), vehicle: steriod suspending solution) is 40 % of control; the T/C (dose: 25.0 mg/kg/injection, schedule: Q01DX007 (sc), vehicle: water) was 41 % of control; the T/C (dose: 25.0 mg/kg/injection, schedule: Q#A X014 (sc), vehicle: steriod suspending solution) is 33 % of control; the T/C (dose: 50.0 mg/kg/injection, schedule: Q01DX007 (sc), vehicle: water) was 39 % of control. For the same compound, the T/C reads like this: under setting [4], 27 % of control; (dose: 100.0 mg/kg/injection, schedule: Q01DX007 (sc), vehicle: water) 18 % of control; (dose: 100.0 mg/kg/injection, schedule: Q#A X014 (sc), vehicle: steriod suspending solution) 17 % of control.
As for `Cc1cc(N(CCCl)CCCl)ccc1C=Nc1ccccc1-c1ccccc1`, the T/C is 100 % of control (dose: 25.0 mg/kg/injection, schedule: Q01DX007 (ip), vehicle: saline); 96 % of control (dose: 50.0 mg/kg/injection, schedule: Q01DX007 (ip), vehicle: saline); 105 % of control (dose: 100.0 mg/kg/injection, schedule: Q01DX007 (ip), vehicle: saline); 73 % of control (dose: 200.0 mg/kg/injection, schedule: Q01DX007 (ip), vehicle: saline).
Consider `CC(=O)[C@H]1CC[C@H]2[C@@H]3CCC4=CC(=O)[C@H](C)C[C@]4(C)[C@H]3C(=O)C[C@]12C`, for which the T/C reads like this: (dose: 50.0 mg/kg/injection, schedule: Q#A X014 (oral), vehicle: steriod suspending solution) 97 % of control; (dose: 125.0 mg/kg/injection, schedule: Q#A X014 (oral), vehicle: steriod suspending solution) 68 % of control; (dose: 250.0 mg/kg/injection, schedule: Q#A X014 (oral), vehicle: steriod suspending solution) 63 % of control.
`Cc1nc(C(N)=O)nc2ccccc12`: the T/C by setting is: (dose: 62.5 mg/kg/injection, schedule: Q#A X014 (ip), vehicle: methylcellulose (MC)) 64 % of control and 81 % of control; (dose: 200.0 mg/kg/injection, schedule: Q01DX007 (ip), vehicle: carboxymethylcellulose (CMC)) 64 % of control and 65 % of control; (dose: 250.0 mg/kg/injection, schedule: Q#A X014 (ip), vehicle: methylcellulose (MC)) 36 % of control.
